Laboratory results: patent publication US20030103993A1, “HLA-DR2 binding peptides” (Corixa Corporation, priority 2000, published 2003)

Experiments:
[1] = tested on: SS8T cloned human T cells; assay: T cell receptor occupancy assay: γ-IFN production by SS8T T cell clone (ELISA); assay type: cell-based; details: SS8T cells restricted to HLA-DR2 and MBP 84-102; 48 h incubation; text cites FIG. 2
Protocol: The Herpes saimiri virus (HSV) transformed SS8T human T cell clone was a generous gift from Dr. H. Wekerle. The clone is restricted to DR2 (DRB5*0101) and MBP (84-102) peptide. It was cultured in RPMI 1640 medium supplemented with 2 mM L-glutamine, 100 units/ml penicillin, 100 μg/ml streptomycin, 10% fetal bovine serum and 50 units/ml human recombinant IL-2 (rIL-2) at 37° C. (culture medium). Every alternate day, cells were transferred to fresh culture medium. Various peptides at different concentrations were incubated with the cells in a microtiter tissue culture plate at a density of 20,000 cells/200 μl/well in the absence of rIL-2. After 48 h of incubation at 37° C., the culture fluids were collected from each well to test for γ-IFN and TNF-β cytokines. The detection of γ-IFN was by Ab ELISA as described recently (Arimilli et a.l, J. Immunol. Methods 212:49-59 (1998)). For the detection of TNF-β, Nunc Maxisorb 96-well plates were coated with anti-human TNF-β mAb at a concentration of 0.5 μg/well and incubated at 4° C. overnight. The wells were blocked with 0.1% bovine serum albumin, and samples were incubated at RT for 2 h. A standard curve was generated by using recombinant human TNF-β with a dilution range of 500 to 0.01 ng/ml. […] The reaction was stopped by 2N sulfuric acid at 5 mm, and the absorbance was measured at 450 nm.

SS8T cells = assay: T cell metabolic acidification rate (Cytosensor microphysiometer); assay type: cell-based, human
Description: Freshly cultured SS8T cells were immobilized into microphysiometer cell capsules as described earlier (Arimilli et al., J. Immunol. Methods 212:49-59 (1998)) using low-melt agarose (Molecular Devices Corp., Sunnyvale, Calif.). Briefly, cells were rested from IL-2 pulsing for 2 days. Cells were counted and suspended in a serum-free loading medium (low-buffering RPMI 1640 containing 10% fatty acid free, endotoxin-free BSA). Cells were collected by centrifugation and resuspended at a concentration of 3×10^5 T cells per 7.5 μl of loading medium. Low-melt agarose (Molecular Devices Corp.), melted and stored at 37° C., was added to the suspended cells to a concentration of 2.5 μl per 7.5 μl. Ten μl of the agarose/cell mixture was immediately spotted into the center of the cell capsule cups (Molecular Devices Corp.) held in a 12 well culture plate. After 5 minutes, 2 ml of loading medium was placed in the capsule cup over the solidified agarose and a membrane insert was placed over the cells. The assembled cell capsule was loaded in the Cytosensor chamber at 37° C. and perfused at 50 μl per min with low-buffering RPMI 1640 medium containing […] but no added HEPES or bicarbonate. […]

HLA-DR2 = molecular target: T1, HLA-DR2 (Homo sapiens, UniProt P01903+Q30154); assay: Peptide/DR2 competitive binding assay (biotinylated MBP 83-102Y83 vs test peptide, ELISA)
T1 construct: DR2 molecules were purified from the human EBV-B cell line; endogenous in cells; host or cells: human EBV-B cell line
Protocol: DR2 molecules were purified from the human EBV-B cell line. […] Mab L243 (IgG2a) affinity chromatography. A 10 μM solution of affinity purified DR2 was biotinylated with 200 μM Biotin-XX-NHS in 0.25 NaHCO3/0.2% NP-40 for 1 hr. at room temperature.
The ability of peptides to bind HLA-DR2 was estimated by competitive peptide binding assay. Purified HLA-DR2 (2 μg/ml) was incubated with 50-fold excess Bt-MBP 83-102Y83 peptide in the presence or absence of test peptides. The ratio of Et-MEP 831-2Y83 peptide to the test peptide was 1:1. After incubation at 37° C. for 48 hrs, the complex was added to the wells coated with anti-DR antibody and incubated for 2 hours at 37° C. The wells were then washed and alkaline phosphatase-linked streptavidin was added and the reaction incubated for 1 hour at 37° C. The excess streptavidin was washed and the ELISA color was developed by using p-nitrophenol phosphate in 0.1M diethanolamine as substrate. The test peptide was considered to be the stronger binding peptide if the O.D was less than the O.D of Bt 83-102Y83 peptide in the absence of the test peptide.

## Ac-GFGYGGRASDYKSAHKGFKG (Ac-GFGYGGRASDYKSAHKGFKG-NH2) [MBP 124-143 peptide, myelin basic protein peptide 124-143, control]
[1]
  γ-IFN production by SS8T cells exposed to peptide: did not show any increase in γ-IFN production

## Ac-YDENPVVHEKMVTPRTPP (Ac-YDENPVVHEKMVTPRTPP-NH2) [MBP 83-102 peptide, myelin basic protein peptide 83-102 with Y at position 83]
SS8T cells; SS8T cells immobilized in agarose, exposed to peptide, FIG. 3
  stimulation of SS8T cells (extracellular acidification rate): increased level of extracellular acidification rate within 10 minutes
[1]
  γ-IFN production by SS8T cells exposed to peptide: specific increase in γ-IFN production

## GHIKSSISFMGM [peptide #1]
SS8T cells; competition with MBP peptide, increasing concentrations
  activation of the MBP 83-102 specific T cells in the presence of increasing concentrations of test peptide: decreasing activation of the hybridomas in a competitive manner
HLA-DR2; purified DR2, 50-fold molar excess biotinylated MBP 83-102Y83, increasing concentrations of test peptide, FIG. 1
  inhibition of the binding of biotinylated MBP 83-102 to DR2: to the same extent as the unbiotinylated MBP 83-102 peptide
HLA-DR2; synthesized peptide, compared with MBP 84-102 peptide
  affinity of binding to DR2 relative to MBP peptide: comparatively in the same range as that of the MBP 83-102 peptide
